Data on four substances can be found in patent US11390646B2, “Structure-based peptide inhibitors of α-synuclein aggregation” (The Regents of the University of California, priority 2016, dated 2022).

Several values for one entry are separate records, joined by “and”; a condition that tells them apart may be missing. Identical values can stand only once. Entries after “also recorded” stand apart in the source; their conditions may differ. Ends that are not written are not given here.

Series [1] deals with HEK293T cells expressing YFP-labeled A53T α-syn. Put plainly: Cell culture seeding assay: α-syn aggregated in the presence of inhibitors, mixture transfected, puncta counted. The format is cell-based, human. Particulars: for seeding competence of α-syn aggregated in presence of peptide (particles/puncta per well): 50 μM α-syn aggregated with 10, 5, 2, 1 fold excess (S71: equimolar and sub-stoichiometric), monitored up to 3 days. The text has this:
(§1) We tested the efficacy of the inhibitors in preventing aggregation in a cell culture model. For these assays, we utilized two HEK293T cells that stably express YFP-labeled full-length WT α-syn and A53T α-syn (Sanders D W, et al. (2014) Neuron 82(6):1271-1288). In this model, lipofectamine-mediated transfection of recombinant fibrils leads to aggregation of the endogenous YFP-labeled protein that are seen as fluorescent puncta. Additionally, these puncta increase in size and number over time. This proliferation of aggregates over time is indicative of a ‘seeding’ phenomenon whereby a small amount of amyloid fibrils induces aggregation of the endogenous protein. First we tested the parent peptide segment, NACore to check its effect on seeding. α-syn was aggregated in the presence of molar excess of NACore (FIG. 2B). The mixture was transfected in cells and puncta formation was visualized and the number of puncta were counted as particles per well. […] Next we aggregated 50 μM α-syn in the presence of 500 μM, 250 μM, 100 μM and 50 μM inhibitor corresponding to 10, 5, 2 and 1 fold excess. The mixture was then transfected in cells and aggregation was monitored over time for up to 3 days by fluorescence imaging (FIG. 2A).
(§2) HEK293T cells that stably express YFP labeled WT α-syn and A53T α-syn were a generous gift from Dr. Marc Diamond. Cells were grown in Dulbecco's modified Eagle's medium (Gibco) supplemented with 10% fetal bovine serum (HyClone), 1% penicillin/streptomycin (Gibco), and 1% glutamax (Gibco) in a humidified incubator in 37° C., 5% CO2.
(§3) 10,000 cells in 90 μL media were plated in 96 well black wall plate (Cat #3660) and allowed to adhere overnight. α-syn was transfected at a final monomer concentration of 125 nM. Lipofectamine 2000 was diluted in OptiMEM media (2.5+17.5 μL) and incubated at room temperature for 5 mins. Protein aggregates were diluted in OptiMEM media (1:20) and sonicated in a water bath sonicator for 3 mins at low pulse. Diluted lipofectamine and protein samples were then mixed 1:1 and incubated at room temperature for 20 mins and thereafter 10 μL was added to each well. All samples are added in triplicates and experiments were repeated a minimum of two times. For co-transfection of α-syn fibrils with inhibitors, the fibrils and inhibitors were diluted in OptiMEM and incubated for 3 hours followed by sonication.
(§4) Puncta formation and cell growth was measured using Celigo Imaging Cell Cytometer allowing for unbiased measurement. Wells were imaged using fluorescent GFP channel and confluence was measured using Celigo analysis software. Images of entire well were taken and particles counted by ImageJ by particle analysis. Same settings were used to analyze wells of one plate at all days. Total particles counted in each well were normalized against the confluence and reported as particles per well.

Series [2] has as its system HEK293T cells expressing YFP-labeled WT α-syn. Described as above. Format: cell-based, human. To be noted: for seeding competence of α-syn aggregated in presence of peptide (particles/puncta per well): 50 μM α-syn aggregated with 10, 5, 2, 1 fold excess (S71: equimolar and sub-stoichiometric), monitored up to 3 days.
From the text: as §1, §2, §3, §4

The target of series [3] is T1, α-syn seeded by PD tissue-extracted filaments (Homo sapiens, UniProt P37840).
T1 construct: Full length α-syn was purified according to published protocols; made in house; host or cells: E. coli BL21 (DE3) gold
The series is described as follows: ThT assay of α-syn aggregation seeded by PD brain tissue-extracted filaments. To be noted: filaments from 4 different subjects (seeds A-D). The format is biochemical. From the text: We extracted insoluble protein aggregates from frozen autopsy PD brain tissues. We obtained tissues from 4 different subjects including the substantia nigra and frontal regions of one subject and temporal and frontal regions of other subjects. Using previously described protocols (Goedert et al. (1992) Neuron 8(1):159-168) that included precipitation with the ionic detergent sarkosyl, we extracted insoluble protein aggregates (FIG. 4A). All samples robustly seeded α-syn aggregation in vitro and in our cell culture model. In vitro addition of 2% seeds increased the ThT fluorescence 4 to 10 fold (FIG. 4B, 4C, 4D) along with a small decrease in the lag time. The seeded samples were then transfected in HEK cells. Consistent with the ThT assay, all seeded samples induced rapid puncta formation (FIG. 4E, 4F, 4G). Thus, fibrils extracted from PD brain tissues seeds recombinant protein, and the aggregates formed upon seeding induce rapid puncta formation in cell culture.
(§5) We tested the effect of the different inhibitors in preventing α-syn aggregation in the presence of PD extracted seeds. […] Next we tested the seeding potency of the α-syn aggregates formed in the presence of PD seeds and the different inhibitors (FIG. 6A).
Fibril formation assays were performed with 50 μM protein concentration in conditions identical to those used for aggregating proteins for seeding assay, but with the addition of ThT. All assays were carried out in black Nunc 96-well optical bottom plates (Thermo Scientific). Plates were agitated at 600 rpm in 3-mm rotation diameter in a Varioskan microplate reader (Thermo) at 37° C. Fluorescence measurements were recorded every 30 mins using λex=444 nm, λcm=482 nm, with an integration time of 200 μs.
Human frozen brain tissues were obtained from UCLA Brain Tumor Translational Resource (BTTR). Sarkosyl insoluble protein was extracted using previously described protocols. Briefly, frozen tissue was homogenized in ice cold PBS using a dounce homogenizer at 200 mg/mL. […]

Series [4] deals with HEK293T cells expressing YFP-labeled A53T α-syn. Put plainly: Cell culture seeding assay: recombinant α-syn fibrils co-transfected with inhibitors. Format: cell-based, human. To be noted: for seeding capacity of α-syn fibrils co-transfected with peptide (particles per well normalized to buffer): 125 nM recombinant α-syn fibrils; for concentrations at which seeding was reduced: 125 nM α-syn fibrils co-transfected. How it is done:
(§6) We tested the efficacy of the inhibitors to prevent seeding in the cell culture model (FIG. 3A). We transfected the α-syn fibrils along with the different inhibitors. […] S62 was effective at concentrations of 12.5 μM and 6.25 μM in both cell lines (FIG. 3E). S71 was effective at low concentrations of 1.25 μM.
as §2, §3, §4

Series [5] deals with HEK293T cells expressing YFP-labeled WT α-syn. Described as above. The format is cell-based, human. To be noted: for seeding capacity of α-syn fibrils co-transfected with peptide (particles per well normalized to buffer): 125 nM recombinant α-syn fibrils; for concentrations at which seeding was reduced: 125 nM α-syn fibrils co-transfected. As to the method: as §6, §2, §3, §4

In series [6] the test system is A53T α-syn expressing HEK cells. The series is described as follows: Seeding potency in cells of α-syn aggregates formed in the presence of PD seeds and inhibitors. Format: cell-based, human. Particulars: three different PD brain extracted seeds.
From the text: as §5
(§7) Human frozen brain tissues were obtained from UCLA Brain Tumor Translational Resource (BTTR). Sarkosyl insoluble protein was extracted using previously described protocols. Briefly, frozen tissue was homogenized in ice cold PBS using a dounce homogenizer at 200 mg/mL. The homogenate was then diluted in buffer A (10 mM Tris 7.4, 800 mM NaCl, 1 mM EGTA, 10% Sucrose) to 50 mg/mL in total volume of 1 mL and centrifuged at 20,700 g for 20 min at 4° C. The supernatant was collected in an ultracentrifuge tube and pellet was resuspended in 0.5 mL buffer A followed by centrifugation at 20,700 g for 20 mins at 4° C. The supernatants pooled together. 150 μl 10% sarkosyl (w/v) in Millipore water was then added and incubated for 1 h at room temperature on flat rotating shaker at 700 rpm. The solution was then centrifuged at 100,000 g for 1 h at 4° C. using SW 55 Rotor (Beckman Coulter). The supernatanat was discarded and pellet was washed with 5 mL Buffer A and centrifuged at 100,000 g for 20 mins at 4° C. The pellet was resuspended in 100 μl 50 mM Tris Ph 7.4
as §3, §4

Series [7] deals with WT α-syn expressing HEK cells. The description is as above. Format: cell-based, human. Particulars: three different PD brain extracted seeds.
From the text: as §5, §7, §3, §4

A further series has as its system WT YFP-α-syn HEK cells. Put plainly: PD filament seeded α-syn fibrils transfected along with inhibitors. The format is cell-based, human. Particulars: two different PD filaments; for seeding by PD filament seeded α-syn fibrils (puncta formation): fluorescence measured up to 6 days. As to the method:
We tested the efficacy of the inhibitors in preventing seeding by PD fibrils in cell culture. α-syn aggregates formed in the presence of PD fibrils were transfected in WT HEK cells along with the different inhibitors (FIG. 7A).
as §7
10,000 cells in 90 μL media were plated in 96 well black wall plate (Cat #3660) and allowed to adhere overnight. α-syn was transfected at a final monomer concentration of 125 nM. Lipofectamine 2000 was diluted in OptiMEM media (2.5+17.5 μL) and incubated at room temperature for 5 mins. […]
Puncta formation and cell growth was measured using Celigo Imaging Cell Cytometer allowing for unbiased measurement. Wells were imaged using fluorescent GFP channel and confluence was measured using Celigo analysis software. Images of entire well were taken and particles counted by ImageJ by particle analysis. […] Total particles counted in each well were normalized against the confluence and reported as particles per well.

For the next series, the system named is PC12 cells. Particulars: literature reference 20; cited from earlier work.
The mark [8] stands for this setting: α-syn aggregated in presence of inhibitor.

With “GAVVWGVTAVKKGRKKRRQRRRPQ (TAT tag) [Inhibitor S62]”, the “seeding competence of α-syn aggregated in presence of peptide (particles/puncta per well)” value (from here on “seeding competence … (particles/puncta per well)”) in series [1] and in series [2] was “not seeding competent; also recorded: seeding incompetent” throughout. Further, in series [3], the “inhibition of α-syn aggregation seeded by PD extracted seeds (ThT fluorescence)” value (shortened to “inhibition of α-syn aggregation seeded”) was “effective against all seeds that were tested; also recorded: efficacy against all seeds”. Further, the “seeding capacity of α-syn fibrils co-transfected with peptide (particles per well normalized to buffer)” value in series [4] and in series [5] was “reduce seeding capacity; also recorded: effective” each time. Also, the “concentrations at which seeding was reduced” value in [4] is 12.5 µM and 6.25 µM; in series [5] it was 12.5 µM and 6.25 µM.

Take “YGRKKRRQRRRAVVT{N-me-Gly}VTAVAE [Inhibitor S71]”: the “seeding potency of α-syn aggregates formed in presence of PD seeds and inhibitor (puncta formation)” value in series [6] and in [7] was “effective against all three seeds; also recorded: did not induce puncta formation” each time. Moreover, the “seeding competence … (particles/puncta per well)” value in [1] and in series [2] was “not seeding competent; also recorded: reduce the seeding potency of the aggregates” throughout. For the same substance, in series [3], the “inhibition of α-syn aggregation seeded” value is “effective against seeds B and D; also recorded: efficacy against all seeds”. The “concentrations at which seeding by PD filament seeded fibrils was prevented/reduced” value with WT YFP-α-syn HEK cells amounted to 6.25 µM. The “seeding by PD filament seeded α-syn fibrils (puncta formation)” value in the series with WT YFP-α-syn HEK cells is on record as “reduced seeding; also recorded: prevented seeding”. For the same substance, the “seeding capacity of α-syn fibrils co-transfected with peptide (particles per well normalized to buffer)” value in series [4] and in [5] was “reduce seeding capacity; also recorded: effective” in each case. Also, the “concentrations at which seeding was reduced” value in series [4] and in [5] was 1.25 µM throughout.

AVVTGVTAV [SubNACore, AVVTGVTAV]: in the series on PC12 cells, the “toxicity compared with NACore” value is “not as toxic”.

As for “GAVVWGVTAVKKKKK (C-terminal poly-lysine tag) [Inhibitor S37, W mutation at Thr72 and poly-lysine tag at the C-terminus]”, the “seeding potency of α-syn aggregates formed in presence of PD seeds and inhibitor (puncta formation)” value in series [6] and in series [7] was “not effective in reducing the seeding potency of aggregates” throughout. Besides, the “seeding competence … (particles/puncta per well)” value in series [1] and in series [2] was “not seeding competent; also recorded: significant reduction in seeding” in each case. In addition, the “duration of reduction in seeding” value in series [1] (setting [8]) and in series [2] (setting [8]) was “up to 2 days” in each case. Also, the “inhibition of α-syn aggregation seeded” value in [3] is “marginal reduction in ThT fluorescence”. Further, the “seeding by PD filament seeded α-syn fibrils (puncta formation)” value with WT YFP-α-syn HEK cells is “prevented seeding; also recorded: prevented puncta formation”. For the same substance, the “seeding capacity of α-syn fibrils co-transfected with peptide (particles per well normalized to buffer)” value in [4] and in [5] was “reduce seeding capacity; also recorded: significant reduction in seeding” each time. Moreover, the “concentrations at which seeding was reduced” value in series [4] was 12.5 µM and 6.25 µM; in [5] it was 12.5 µM and 6.25 µM. Further, the “duration of reduction of seeding” value in series [5] (single administration, co-transfection) is listed as “up to 2 days”.
